The values that follow come from patent US6399615B1, “Farnesyl protein transferase inhibitors” (Schering Corporation, priority 1997, dated 2002).

Series [1] concerns the target farnesyl protein transferase (Homo sapiens, UniProt P49354+P49356). Description: FPT IC50 (inhibition of farnesyl protein transferase, in vitro enzyme assay). It is filed as biochemical. On the procedure: (§1) FPT IC50 (inhibition of farnesyl protein transferase, in vitro enzyme assay) and COS Cell IC50 (Cell-Based Assay) were determined following the assay procedures described in WO 95/10516, published Apr. 20, 1995. GGPT IC50 (inhibition of geranylgeranyl protein transferase, in vitro enzyme assay), Cell Mat Assay, and anti-tumor activity (in vivo anti-tumor studies) could be determined by the assay procedures described in WO 95/10516. The disclosure of WO 95/10516 is incorporated herein by reference thereto.

Another series has as its system COS Cell. Description: COS Cell IC50 (Cell-Based Assay). The conditions noted are these: COS cells. The protocol: as §1
The next series deals with Human tumor cells. Description: Soft Agar Assay (anchorage-independent growth). Type of series: cell-based. The conditions noted are these: colony growth in soft agar. The protocol:
Anchorage-independent growth is a characteristic of tumorigenic cell lines. Human tumor cells are suspended in growth medium containing 0.3% agarose and an indicated concentration of a farnesyl transferase inhibitor. The solution is overlayed onto growth medium solidified with 0.6% agarose containing the same concentration of farnesyl transferase inhibitor as the top layer. After the top layer is solidified, plates are incubated for 10-16 days at 37° C. under 5% CO2 to allow colony outgrowth. After incubation, the colonies are stained by overlaying the agar with a solution of MTT (3-[4,5-dimethyl-thiazol-2-yl]-2,5-diphenyltetrazolium bromide, Thiazolyl blue) (1 mg/mL in PBS). Colonies can be counted and the IC50's can be determined.

Molecules are shown by their SMILES.

Broadly, the melting point is the temperature of the solid-liquid transition. A word on the IC50: it is the concentration that inhibits the measured activity by half. A higher IC50 goes with a need for much substance.

In the case of `NC(=O)Cc1cccc(CC(=O)N2CCC([C@H]3c4ncc(Br)cc4CCc4cc(Cl)cc(Br)c43)CC2)c1` [Example 16], the melting point was in the range of 119 to 125 °C. Moreover, the IC50 in series [1] came out at 0.0063 µM. Further, the IC50 in the series with COS Cell turned out to be 0.375 µM.

On to `O=C(O)c1ccccc1CC(=O)N1CCC([C@H]2c3ncc(Br)cc3CCc3cc(Cl)cc(Br)c32)CC1` [Example 1], for which the melting point is 229 °C (dec.). For the same molecule, it took 0.066 µM to reach half-maximal inhibition in series [1] (IC50).

With `O=C(O)C1CCC(CC(=O)N2CCC([C@H]3c4ncc(Br)cc4CCc4cc(Cl)cc(Br)c43)CC2)CC1` (stereo partly drawn) [Example 12], the figures for the IC50 (in series [1]; in the series with Human tumor cells; in the series with COS Cell) were 0.0019 µM, > 0.5 µM and 0.01 µM, respectively.

Turning to `O=C(NO)c1ccccc1CC(=O)N1CCC([C@H]2c3ncc(Br)cc3CCc3cc(Cl)cc(Br)c32)CC1` [Example 27], the melting point was in the range of 156 to 157 °C. This molecule also registered a 50% inhibitory concentration (IC50) in series [1] of 0.053 µM.

`NC(=O)[C@@H]1C[C@H]1C(=O)N1CCC([C@H]2c3ncc(Br)cc3CCc3cc(Cl)cc(Br)c32)CC1` [Example 29 (compound 54.0)]: the concentration for half-maximal inhibition (IC50) in series [1] amounted to 0.0083 µM.

For `O=C(Cc1ccccc1C(=O)N1CCOCC1)N1CCC([C@H]2c3ncc(Br)cc3CCc3cc(Cl)cc(Br)c32)CC1` [Example 26], the melting point lay within 136 to 138 °C. The molecule also came in with an IC50 in series [1] of 0.056 µM.

Consider `COC(=O)[C@@H]1C[C@H]1C(=O)N1CCC([C@H]2c3ncc(Br)cc3CCc3cc(Cl)cc(Br)c32)CC1` [Example 29 (compound 54.1)], for which, in series [1], it took 0.034 µM to reach half-maximal inhibition (IC50). That is a double-digit nanomolar value.

Consider `CC(C)(C)OC(=O)C[C@H]1CC[C@H](C(=O)N2CCC([C@H]3c4ncc(Br)cc4CCc4cc(Cl)cc(Br)c43)CC2)CC1` [Example 10], for which the melting point lay within 98 to 102 °C. The molecule also registered a half-maximal inhibitory concentration (IC50) in series [1] of 0.091 µM.

Consider `O=C(O)C[C@H]1CC[C@H](C(=O)N2CCC([C@H]3c4ncc(Br)cc4CCc4cc(Cl)cc(Br)c43)CC2)CC1` [Example 36], for which the IC50 in series [1] stood at 0.0102 µM; in the series on COS Cell, 0.5 µM.

With `COC(=O)Cc1ccc(CC(=O)N2CCC([C@H]3c4ncc(Br)cc4CCc4cc(Cl)cc(Br)c43)CC2)cc1` [Example 34], the melting point fell in the range of 81 to 86 °C. Also, in series [1], inhibition was half-maximal at 0.0086 µM (IC50). Also, half-maximal inhibition with COS Cell (IC50) was put at 0.18 µM.

`O=C(Cc1ccc(CC(=O)N2CCC([C@H]3c4ncc(Br)cc4CCc4cc(Cl)cc(Br)c43)CC2)cc1)NCCO` [Example 20] had a melting point of 94 to 100 °C. Besides, in series [1], the IC50 is > 0.14 µM.

`NC(=O)Cc1ccc(CC(=O)N2CCC([C@H]3c4ncc(Br)cc4CCc4cc(Cl)cc(Br)c43)CC2)cc1` [Example 15]: the IC50 is 0.0036 µM in series [1], > 0.5 µM in the series with Human tumor cells and 0.1 µM in the series on COS Cell.

As to `CC(C)(C)OC(=O)C=C1CCC(=CC(=O)N2CCC([C@H]3c4ncc(Br)cc4CCc4cc(Cl)cc(Br)c43)CC2)CC1` [Example 7], the melting point is 113 to 117 °C. For the same molecule, the IC50 in series [1] amounted to 0.11 µM.

In turn, `O=C(O)C=C1CCC(=CC(=O)N2CCC([C@H]3c4ncc(Br)cc4CCc4cc(Cl)cc(Br)c43)CC2)CC1` [Example 14] yielded a melting point of 161 to 169 °C. In addition, the midpoint of inhibition in series [1], the IC50, lay at 0.0052 µM. The same molecule gave an IC50 in the series with COS Cell of 0.055 µM.

Regarding `NC(=O)[C@H]1C[C@@H]1C(=O)N1CCC([C@H]2c3ncc(Br)cc3CCc3cc(Cl)cc(Br)c32)CC1` [30 (compound 55.0)], the 50% inhibitory concentration (IC50) is 0.0062 µM in series [1] and 0.05 µM in the series on COS Cell.

Consider `CC(C)(C)OC(=O)C[C@H]1CC[C@@H](C(=O)N2CCC([C@H]3c4ncc(Br)cc4CCc4cc(Cl)cc(Br)c43)CC2)CC1` [Example 9], for which the melting point was in the range of 98 to 102 °C. For the same molecule, half-maximal inhibition in series [1] (IC50) required 0.044 µM.

With `COC(=O)CNC(=O)Cc1ccc(CC(=O)N2CCC([C@H]3c4ncc(Br)cc4CCc4cc(Cl)cc(Br)c43)CC2)cc1` [Example 18], the melting point is 94 to 97 °C. For the same molecule, the midpoint of inhibition in series [1], the IC50, lay at 0.0053 µM. In the series with COS Cell, this molecule displayed an IC50 of 0.45 µM.

For `CONC(=O)Cc1ccc(CC(=O)N2CCC([C@H]3c4ncc(Br)cc4CCc4cc(Cl)cc(Br)c43)CC2)cc1` [Example 19], the melting point lay in the range of 116 to 123 °C. Further, the IC50 in series [1] came out at 0.0047 µM. Further, in the series with COS Cell, half-maximal inhibition (IC50) required 0.09 µM.

`COC(=O)CNC(=O)Cc1cccc(CC(=O)N2CCC([C@H]3c4ncc(Br)cc4CCc4cc(Cl)cc(Br)c43)CC2)c1` [Example 17] registered a melting point of 86 to 90 °C. Also, the midpoint of inhibition in series [1], the IC50, lay at 0.0095 µM. Moreover, it took 0.41 µM to reach half-maximal inhibition with COS Cell (IC50).

The molecule `O=C(O)Cc1ccc(CC(=O)N2CCC([C@H]3c4ncc(Br)cc4CCc4cc(Cl)cc(Br)c43)CC2)cc1` [Example 3] displayed a melting point of 186 to 189 °C. In series [1], this molecule gave an IC50 of 0.0016 µM. Moreover, the midpoint of inhibition with COS Cell, the IC50, lay at 0.38 µM.

On to `O=C(O)[C@H]1CC[C@H](C(=O)N2CCC([C@H]3c4ncc(Br)cc4CCc4cc(Cl)cc(Br)c43)CC2)CC1` [Example 5], for which the melting point is 138 to 140 °C. Moreover, the IC50 in series [1] came out at 0.046 µM.

Regarding `COC(=O)[C@H]1C[C@@H]1C(=O)N1CCC([C@H]2c3ncc(Br)cc3CCc3cc(Cl)cc(Br)c32)CC1` [30 (compound 55.1)], the midpoint of inhibition in series [1], the IC50, lay at 0.025 µM.

Turning to `O=C(O)CC1CCC(CC(=O)N2CCC([C@H]3c4ncc(Br)cc4CCc4cc(Cl)cc(Br)c43)CC2)CC1` (stereo partly drawn) [Example 13], the half-inhibitory concentration (IC50) in series [1] is 0.0015 µM; in the series on Human tumor cells, > 0.5 µM; with COS Cell, 0.01 µM.

The molecule `NC(=O)CC1CCC(CC(=O)N2CCC(C3c4ncc(Br)cc4CCc4cc(Cl)cc(Br)c43)CC2)CC1` (stereo not drawn) [Example 22] came in with a melting point of 103 to 110 °C. The same molecule showed a half-maximal inhibitory concentration (IC50) in series [1] of 0.0063 µM. In the series on COS Cell, the IC50 came to 0.022 µM.

`O=C(NCc1ccncc1)c1ccccc1CC(=O)N1CCC([C@H]2c3ncc(Br)cc3CCc3cc(Cl)cc(Br)c32)CC1` [Example 24] had a melting point of 134 to 138 °C. This molecule also showed an IC50 in series [1] of 0.047 µM.

As for `O=C(O)Cc1cccc(CC(=O)N2CCC([C@H]3c4ncc(Br)cc4CCc4cc(Cl)cc(Br)c43)CC2)c1` [Example 4], the melting point is 205 °C (dec.). Besides, the IC50 in series [1] worked out at 0.0041 µM. The molecule also had a half-maximal inhibitory concentration (IC50) with COS Cell of 0.4 µM.

For the molecule `COC(=O)CNC(=O)c1ccccc1CC(=O)N1CCC([C@H]2c3ncc(Br)cc3CCc3cc(Cl)cc(Br)c32)CC1` [Example 25], the melting point is 116 to 118 °C. In series [1], this molecule returned an IC50 of 0.036 µM.

As for `O=C(Cc1ccccc1C(=O)N1CCC([C@H]2c3ncc(Br)cc3CCc3cc(Cl)cc(Br)c32)CC1)N1CCOCC1` [Example 11], the melting point is 127 to 128 °C. Also, 0.25 µM corresponded to half-maximal inhibition in series [1] (IC50).

Molecule `CC(C)(C)OC(=O)CC1CCC(CC(=O)N2CCC([C@H]3c4ncc(Br)cc4CCc4cc(Cl)cc(Br)c43)CC2)CC1` (stereo partly drawn) [Example 6] showed a melting point of 86 to 90 °C. Further, inhibition in series [1] was half-maximal at 0.019 µM (IC50).

Molecule `NC(=O)C1CCC(CC(=O)N2CCC(C3c4ncc(Br)cc4CCc4cc(Cl)cc(Br)c43)CC2)CC1` (stereo not drawn) [Example 23] came in with a melting point of 145 to 152 °C. Further, the IC50 in series [1] is 0.0046 µM. Further, in the series on COS Cell, the IC50 came to 0.018 µM.

For the molecule `O=C(O)C[C@H]1CC[C@@H](C(=O)N2CCC([C@H]3c4ncc(Br)cc4CCc4cc(Cl)cc(Br)c43)CC2)CC1` [Example 35], the IC50 in series [1] worked out at 0.0033 µM; in the series on COS Cell, 0.07 µM.
